Source: ChEMBL document CHEMBL1649287, “Postantibiotic effect of ceftaroline against gram-positive organisms” (2009)

How the values were obtained:
Staphylococcus aureus = assay: Antimicrobial activity against Staphylococcus aureus ATCC 29213 assessed as post antibiotic effect at 10 times MIC after 2 hr by plate counting method; assay type: functional
Streptococcus pneumoniae = assay: Antimicrobial activity against Streptococcus pneumoniae ATCC 6306 assessed as post antibiotic effect at 10 times MIC after 2 hr by plate counting method; assay type: functional

CO/N=C(\C(=O)N[C@@H]1C(=O)N2C(C(=O)O)=C(CSc3nc(=O)c(O)nn3C)CS[C@H]12)c1csc(N)n1 [CEFTRIAXONE]
PAE (Staphylococcus aureus): 2.3 h | PAE (Streptococcus pneumoniae): 0.7 h
